Measured values taken from ChEMBL document CHEMBL3991601, “The target landscape of clinical kinase drugs” (Science, 2017).
Activity calls are given as the source filed them. Cut-off read from the data, not from the text of the source, for most assays here: actives have a measured Kd and inactives only a lower limit.

Key:
[1] = molecular target: T1, Mitogen-activated protein kinase kinase kinase 2 (Homo sapiens, UniProt Q9Y2U5)
T1 sequence (Q9Y2U5 whole entry): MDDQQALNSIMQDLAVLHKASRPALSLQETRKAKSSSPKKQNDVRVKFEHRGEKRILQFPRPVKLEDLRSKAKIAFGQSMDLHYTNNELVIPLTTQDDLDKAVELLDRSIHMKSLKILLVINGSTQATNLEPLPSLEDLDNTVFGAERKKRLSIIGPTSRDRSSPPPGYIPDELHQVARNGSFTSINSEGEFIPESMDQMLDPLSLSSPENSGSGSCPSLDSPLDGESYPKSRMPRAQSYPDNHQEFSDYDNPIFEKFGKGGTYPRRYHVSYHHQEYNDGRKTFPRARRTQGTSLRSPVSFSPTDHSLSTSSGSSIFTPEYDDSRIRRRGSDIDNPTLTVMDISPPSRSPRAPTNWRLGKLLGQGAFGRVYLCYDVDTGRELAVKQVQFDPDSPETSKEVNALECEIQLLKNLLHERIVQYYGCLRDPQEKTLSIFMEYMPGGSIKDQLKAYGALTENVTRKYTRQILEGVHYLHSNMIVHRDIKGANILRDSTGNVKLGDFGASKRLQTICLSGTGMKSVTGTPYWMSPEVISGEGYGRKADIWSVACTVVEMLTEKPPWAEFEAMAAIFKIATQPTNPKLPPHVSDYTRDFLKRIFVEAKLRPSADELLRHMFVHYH

[2] = molecular target: Dual specificity mitogen-activated protein kinase kinase 1 (Homo sapiens, UniProt Q02750)
Sequence of Dual specificity mitogen-activated protein kinase kinase 1 (Q02750 whole entry): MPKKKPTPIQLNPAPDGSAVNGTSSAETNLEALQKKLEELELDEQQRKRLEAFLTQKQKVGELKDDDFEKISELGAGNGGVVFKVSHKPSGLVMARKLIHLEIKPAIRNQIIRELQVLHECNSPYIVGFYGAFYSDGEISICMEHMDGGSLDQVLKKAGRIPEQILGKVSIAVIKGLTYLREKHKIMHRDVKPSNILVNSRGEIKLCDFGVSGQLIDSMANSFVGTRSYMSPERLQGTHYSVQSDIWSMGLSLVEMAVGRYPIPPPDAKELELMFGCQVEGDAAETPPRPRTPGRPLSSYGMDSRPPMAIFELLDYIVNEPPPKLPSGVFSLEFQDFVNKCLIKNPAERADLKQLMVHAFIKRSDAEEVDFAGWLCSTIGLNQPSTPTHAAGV

[3] = molecular target: T2, Succinate--CoA ligase [ADP-forming] subunit beta, mitochondrial (Homo sapiens, UniProt Q9P2R7)
T2 sequence (Q9P2R7 whole entry): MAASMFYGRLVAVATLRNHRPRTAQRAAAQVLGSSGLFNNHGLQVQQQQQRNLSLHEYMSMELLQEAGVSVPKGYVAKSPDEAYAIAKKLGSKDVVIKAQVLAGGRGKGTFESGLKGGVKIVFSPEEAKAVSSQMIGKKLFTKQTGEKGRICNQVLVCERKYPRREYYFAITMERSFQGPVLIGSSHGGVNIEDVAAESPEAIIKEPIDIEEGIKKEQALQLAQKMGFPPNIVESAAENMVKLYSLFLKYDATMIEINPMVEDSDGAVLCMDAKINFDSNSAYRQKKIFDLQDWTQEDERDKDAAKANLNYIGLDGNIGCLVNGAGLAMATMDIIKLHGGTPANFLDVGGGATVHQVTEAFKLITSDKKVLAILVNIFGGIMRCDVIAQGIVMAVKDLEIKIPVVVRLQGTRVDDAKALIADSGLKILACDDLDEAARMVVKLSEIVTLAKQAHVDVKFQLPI

[4] = molecular target: MAP/microtubule affinity-regulating kinase 3 (Homo sapiens, UniProt P27448)
Sequence of MAP/microtubule affinity-regulating kinase 3 (P27448 whole entry): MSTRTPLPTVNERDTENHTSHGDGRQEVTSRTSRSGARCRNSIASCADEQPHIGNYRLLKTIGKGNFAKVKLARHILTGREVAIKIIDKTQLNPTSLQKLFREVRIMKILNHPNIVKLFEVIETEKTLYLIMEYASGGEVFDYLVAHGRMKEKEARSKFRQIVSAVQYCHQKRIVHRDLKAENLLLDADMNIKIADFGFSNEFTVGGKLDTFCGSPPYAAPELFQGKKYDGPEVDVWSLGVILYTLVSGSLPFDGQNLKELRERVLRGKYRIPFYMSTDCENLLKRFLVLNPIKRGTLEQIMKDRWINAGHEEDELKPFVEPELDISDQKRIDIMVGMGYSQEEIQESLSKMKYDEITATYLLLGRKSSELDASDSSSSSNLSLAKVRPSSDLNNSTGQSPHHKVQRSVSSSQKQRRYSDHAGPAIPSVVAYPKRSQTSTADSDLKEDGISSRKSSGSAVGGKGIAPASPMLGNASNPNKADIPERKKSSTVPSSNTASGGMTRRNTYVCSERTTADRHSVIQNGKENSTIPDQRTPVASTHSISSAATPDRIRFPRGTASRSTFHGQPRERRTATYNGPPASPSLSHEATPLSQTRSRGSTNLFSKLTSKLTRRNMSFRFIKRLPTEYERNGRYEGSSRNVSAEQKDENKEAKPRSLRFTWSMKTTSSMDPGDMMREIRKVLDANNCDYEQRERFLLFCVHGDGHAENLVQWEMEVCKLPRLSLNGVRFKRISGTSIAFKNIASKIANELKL

[5] = molecular target: Tyrosine-protein kinase JAK1 (Homo sapiens, UniProt P23458)
Sequence of Tyrosine-protein kinase JAK1 (P23458 whole entry): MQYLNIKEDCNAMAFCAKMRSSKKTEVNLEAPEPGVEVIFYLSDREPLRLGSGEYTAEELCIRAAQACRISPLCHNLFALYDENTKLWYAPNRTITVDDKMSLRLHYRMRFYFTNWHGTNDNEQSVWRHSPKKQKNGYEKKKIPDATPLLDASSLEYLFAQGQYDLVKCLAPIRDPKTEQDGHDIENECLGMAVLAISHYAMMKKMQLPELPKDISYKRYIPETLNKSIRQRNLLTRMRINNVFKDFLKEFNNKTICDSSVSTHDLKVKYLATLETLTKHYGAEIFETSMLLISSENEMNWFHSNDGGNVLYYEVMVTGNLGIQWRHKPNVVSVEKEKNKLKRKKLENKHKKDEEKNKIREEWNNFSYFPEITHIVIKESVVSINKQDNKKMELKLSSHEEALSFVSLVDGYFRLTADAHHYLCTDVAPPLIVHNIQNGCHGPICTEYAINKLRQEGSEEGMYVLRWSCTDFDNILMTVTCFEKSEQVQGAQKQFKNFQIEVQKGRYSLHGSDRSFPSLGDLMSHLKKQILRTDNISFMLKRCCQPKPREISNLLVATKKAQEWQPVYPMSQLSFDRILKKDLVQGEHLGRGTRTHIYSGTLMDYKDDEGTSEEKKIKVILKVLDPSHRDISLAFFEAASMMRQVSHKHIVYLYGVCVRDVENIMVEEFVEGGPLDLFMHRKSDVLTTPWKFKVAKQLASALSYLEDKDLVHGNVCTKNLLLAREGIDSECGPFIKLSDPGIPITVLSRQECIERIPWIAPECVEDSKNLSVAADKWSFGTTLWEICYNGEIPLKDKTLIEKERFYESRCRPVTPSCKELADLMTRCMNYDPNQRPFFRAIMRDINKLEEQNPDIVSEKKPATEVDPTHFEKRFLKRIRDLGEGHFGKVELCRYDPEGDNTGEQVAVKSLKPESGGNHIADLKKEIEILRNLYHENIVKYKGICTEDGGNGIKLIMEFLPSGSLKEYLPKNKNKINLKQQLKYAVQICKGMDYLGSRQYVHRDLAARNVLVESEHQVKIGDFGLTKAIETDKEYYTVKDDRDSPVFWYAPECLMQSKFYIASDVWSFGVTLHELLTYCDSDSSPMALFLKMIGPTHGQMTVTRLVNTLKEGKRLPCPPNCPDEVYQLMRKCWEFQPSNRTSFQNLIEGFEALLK

[6] = molecular target: T3, Mitogen-activated protein kinase kinase kinase 6 (Homo sapiens, UniProt O95382)
T3 sequence (O95382 whole entry): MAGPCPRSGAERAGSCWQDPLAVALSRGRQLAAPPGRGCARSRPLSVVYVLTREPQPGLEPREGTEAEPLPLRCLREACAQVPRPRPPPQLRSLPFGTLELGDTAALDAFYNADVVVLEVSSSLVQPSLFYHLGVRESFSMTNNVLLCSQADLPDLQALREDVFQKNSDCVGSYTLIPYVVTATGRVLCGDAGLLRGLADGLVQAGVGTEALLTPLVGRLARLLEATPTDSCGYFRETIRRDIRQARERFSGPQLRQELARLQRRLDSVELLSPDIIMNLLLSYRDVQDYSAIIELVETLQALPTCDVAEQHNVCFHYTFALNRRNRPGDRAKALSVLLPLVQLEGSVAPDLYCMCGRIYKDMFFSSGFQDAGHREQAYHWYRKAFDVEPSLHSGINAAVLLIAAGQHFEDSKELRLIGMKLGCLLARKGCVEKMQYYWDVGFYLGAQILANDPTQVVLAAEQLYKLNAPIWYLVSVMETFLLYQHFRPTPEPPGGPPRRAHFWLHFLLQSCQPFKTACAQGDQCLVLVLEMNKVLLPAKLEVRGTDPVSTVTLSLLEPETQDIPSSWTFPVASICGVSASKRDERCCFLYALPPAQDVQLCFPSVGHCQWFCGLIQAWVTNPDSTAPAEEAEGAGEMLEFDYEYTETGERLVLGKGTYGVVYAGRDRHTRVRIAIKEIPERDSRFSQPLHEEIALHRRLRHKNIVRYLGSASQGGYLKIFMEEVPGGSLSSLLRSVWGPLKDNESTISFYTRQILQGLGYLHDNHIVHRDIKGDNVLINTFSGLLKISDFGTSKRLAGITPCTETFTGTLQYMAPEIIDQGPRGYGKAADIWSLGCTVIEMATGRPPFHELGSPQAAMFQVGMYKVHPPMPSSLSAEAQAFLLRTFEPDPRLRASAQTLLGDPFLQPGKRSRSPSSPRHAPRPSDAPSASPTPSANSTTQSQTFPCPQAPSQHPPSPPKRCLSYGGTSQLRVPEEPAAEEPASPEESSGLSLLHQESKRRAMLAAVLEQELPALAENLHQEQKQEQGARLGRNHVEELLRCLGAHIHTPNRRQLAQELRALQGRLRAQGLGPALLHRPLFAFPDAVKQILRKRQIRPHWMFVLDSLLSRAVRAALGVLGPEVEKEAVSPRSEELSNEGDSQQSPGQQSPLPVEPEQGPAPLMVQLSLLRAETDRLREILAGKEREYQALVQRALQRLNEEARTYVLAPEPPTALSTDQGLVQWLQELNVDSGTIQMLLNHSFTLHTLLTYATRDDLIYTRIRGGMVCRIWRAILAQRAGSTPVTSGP

[7] = molecular target: Mitotic checkpoint serine/threonine-protein kinase BUB1 (Homo sapiens, UniProt O43683)
Sequence of Mitotic checkpoint serine/threonine-protein kinase BUB1 (O43683 whole entry): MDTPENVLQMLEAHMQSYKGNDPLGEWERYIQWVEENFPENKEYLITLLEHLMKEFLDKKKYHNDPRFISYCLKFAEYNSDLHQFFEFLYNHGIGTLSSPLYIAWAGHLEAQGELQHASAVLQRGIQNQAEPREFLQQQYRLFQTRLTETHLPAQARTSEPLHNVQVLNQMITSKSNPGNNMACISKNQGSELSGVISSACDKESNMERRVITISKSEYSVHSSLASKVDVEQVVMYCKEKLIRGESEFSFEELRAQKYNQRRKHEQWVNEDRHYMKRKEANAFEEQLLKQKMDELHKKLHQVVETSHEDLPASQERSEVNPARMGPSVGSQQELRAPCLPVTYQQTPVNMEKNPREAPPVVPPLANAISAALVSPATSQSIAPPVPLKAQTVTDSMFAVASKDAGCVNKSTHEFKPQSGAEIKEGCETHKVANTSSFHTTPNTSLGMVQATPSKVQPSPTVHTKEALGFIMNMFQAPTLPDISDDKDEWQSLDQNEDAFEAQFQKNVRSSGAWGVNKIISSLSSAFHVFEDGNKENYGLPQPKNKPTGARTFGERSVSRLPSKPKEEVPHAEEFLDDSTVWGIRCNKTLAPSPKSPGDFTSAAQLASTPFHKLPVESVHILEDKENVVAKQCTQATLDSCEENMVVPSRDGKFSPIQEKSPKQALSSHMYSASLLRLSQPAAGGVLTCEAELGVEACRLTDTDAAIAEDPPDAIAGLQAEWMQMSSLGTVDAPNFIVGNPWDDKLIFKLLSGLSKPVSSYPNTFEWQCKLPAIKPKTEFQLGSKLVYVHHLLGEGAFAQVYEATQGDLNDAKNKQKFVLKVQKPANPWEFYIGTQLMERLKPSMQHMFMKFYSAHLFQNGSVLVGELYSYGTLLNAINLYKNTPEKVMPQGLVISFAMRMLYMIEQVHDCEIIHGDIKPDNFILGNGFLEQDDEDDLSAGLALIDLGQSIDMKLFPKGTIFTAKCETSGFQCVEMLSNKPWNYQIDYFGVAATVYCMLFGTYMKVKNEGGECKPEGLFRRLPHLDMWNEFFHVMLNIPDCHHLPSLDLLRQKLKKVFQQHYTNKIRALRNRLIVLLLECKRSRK

[8] = molecular target: T4, Dual specificity mitogen-activated protein kinase kinase 3 (Homo sapiens, UniProt P46734)
T4 sequence (P46734 whole entry): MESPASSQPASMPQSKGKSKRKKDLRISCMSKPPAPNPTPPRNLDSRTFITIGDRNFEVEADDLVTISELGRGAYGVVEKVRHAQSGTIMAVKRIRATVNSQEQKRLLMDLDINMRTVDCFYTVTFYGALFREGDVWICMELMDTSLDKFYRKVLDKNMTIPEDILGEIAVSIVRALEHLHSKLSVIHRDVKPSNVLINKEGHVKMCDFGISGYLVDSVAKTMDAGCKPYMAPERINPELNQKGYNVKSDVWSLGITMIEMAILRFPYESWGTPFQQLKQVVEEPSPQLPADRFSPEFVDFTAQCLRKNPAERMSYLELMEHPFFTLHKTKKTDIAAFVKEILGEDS

[9] = molecular target: Glycogen synthase kinase-3 beta (Homo sapiens, UniProt P49841)
Sequence of Glycogen synthase kinase-3 beta (P49841 whole entry): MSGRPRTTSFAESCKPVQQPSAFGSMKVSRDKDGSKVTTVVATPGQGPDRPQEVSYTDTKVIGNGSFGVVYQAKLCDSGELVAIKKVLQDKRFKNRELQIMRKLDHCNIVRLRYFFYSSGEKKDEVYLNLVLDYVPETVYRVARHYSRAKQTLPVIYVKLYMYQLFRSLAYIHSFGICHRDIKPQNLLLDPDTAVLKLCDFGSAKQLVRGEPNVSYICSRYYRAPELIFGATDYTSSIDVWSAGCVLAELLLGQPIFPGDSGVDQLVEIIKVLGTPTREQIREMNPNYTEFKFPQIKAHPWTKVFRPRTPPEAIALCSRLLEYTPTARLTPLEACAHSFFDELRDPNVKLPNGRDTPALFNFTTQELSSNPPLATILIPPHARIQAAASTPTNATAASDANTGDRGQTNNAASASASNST
Note: in the data inactive means no Kd found up to 30 µM.

SMILES | Kd [1] | Kd [2] | Kd [3] | Kd [4] | Kd [5] | Kd [6] | Kd [7] | Kd [8] | Kd [9]
O=c1sn(-c2cccc3ccccc23)c(=O)n1Cc1ccccc1 [TIDEGLUSIB] | > 30 µM (inactive) | > 30 µM (inactive) | > 30 µM (inactive) | > 30 µM (inactive) | > 30 µM (inactive) | > 30 µM (inactive) | > 30 µM (inactive) | > 30 µM (inactive) | 
CNS(=O)(=O)Nc1nccc(Cc2c(C)c3ccc(Oc4ncccn4)cc3oc2=O)c1F [AVUTOMETINIB] | > 30 µM (inactive) |  | > 30 µM (inactive) | > 30 µM (inactive) | > 30 µM (inactive) | > 30 µM (inactive) | > 30 µM (inactive) | > 30 µM (inactive) | > 30 µM (inactive)
CCc1cnn2c(NCc3ccc[n+]([O-])c3)cc(N3CCCC[C@H]3CCO)nc12 [DINACICLIB] | > 30 µM (inactive) |  | > 30 µM (inactive) | > 30 µM (inactive) | > 30 µM (inactive) | > 30 µM (inactive) | > 30 µM (inactive) | > 30 µM (inactive) | 1.43 µM (active)
COC(=O)[C@@]1(O)C[C@H]2O[C@]1(C)n1c3ccccc3c3c4c(c5c6ccccc6n2c5c31)C(=O)NC4 [K-252A] | 4.12 µM (active) |  | > 30 µM (inactive) | 0.384 µM (active) | > 30 µM (inactive) | 0.335 µM (active) | > 30 µM (inactive) | > 30 µM (inactive) | > 30 µM (inactive)
CN1CCC(COc2cnc(-c3cccc(Cn4nc(-c5cccc(C#N)c5)ccc4=O)c3)nc2)CC1 [TEPOTINIB] | > 30 µM (inactive) | > 30 µM (inactive) | > 30 µM (inactive) | > 30 µM (inactive) |  | > 30 µM (inactive) | > 30 µM (inactive) | > 30 µM (inactive) | > 30 µM (inactive)
CNC(=O)c1ccc(-c2cnc3ncc(Cc4ccc5ncccc5c4)n3n2)cc1F [CAPMATINIB] | > 30 µM (inactive) | > 30 µM (inactive) | > 30 µM (inactive) | > 30 µM (inactive) | > 30 µM (inactive) | > 30 µM (inactive) | > 30 µM (inactive) | > 30 µM (inactive) | 
Cn1cc(-c2ccc(F)c(C(F)(F)F)c2)nc1C1CCN(c2ncnc3[nH]ncc23)CC1 [LY-2584702] | > 30 µM (inactive) | > 30 µM (inactive) | > 30 µM (inactive) | > 30 µM (inactive) | > 30 µM (inactive) | > 30 µM (inactive) | > 30 µM (inactive) | > 30 µM (inactive) | 
Cc1cn(-c2cc(NC(=O)c3ccc(C)c(Nc4nccc(-c5cccnc5)n4)c3)cc(C(F)(F)F)c2)cn1 [NILOTINIB] |  |  | > 30 µM (inactive) |  |  |  | > 30 µM (inactive) |  | 
Cc1cc(Nc2cc(N3CCN(C)CC3)nc(/C=C/c3ccccc3)n2)n[nH]1 [ENMD-2076] |  | > 30 µM (inactive) | > 30 µM (inactive) |  | > 30 µM (inactive) | > 30 µM (inactive) | > 30 µM (inactive) | > 30 µM (inactive) | 
OCCn1cc(-c2cnc3nnn(Cc4ccc5ncccc5c4)c3n2)cn1 [PF-04217903] | > 30 µM (inactive) |  | > 30 µM (inactive) | > 30 µM (inactive) | > 30 µM (inactive) | > 30 µM (inactive) | > 30 µM (inactive) | > 30 µM (inactive) | 
CC(C)Nc1cc(-c2c[nH]c(C(=O)N[C@H](CO)c3cccc(Cl)c3)c2)c(Cl)cn1 [ULIXERTINIB] | > 30 µM (inactive) |  | > 30 µM (inactive) | > 30 µM (inactive) | > 30 µM (inactive) | > 30 µM (inactive) | > 30 µM (inactive) | > 30 µM (inactive) | > 30 µM (inactive)
O=C(Nc1cccc(Cl)c1)Nc1ncc(CCNc2ncnc3ccsc23)s1 [SNS-314] | > 30 µM (inactive) |  | > 30 µM (inactive) |  | > 30 µM (inactive) | > 30 µM (inactive) |  |  | 
Cc1nc(N)sc1-c1ccnc(Nc2ccc(N3CCOCC3)cc2)n1 [CYC-116] | > 30 µM (inactive) | > 30 µM (inactive) | > 30 µM (inactive) |  | 5.39 µM (active) | > 30 µM (inactive) | 0.111 µM (active) | > 30 µM (inactive) | 
COc1cc2nccc(Oc3ccc(NC(=O)NC4CC4)c(Cl)c3)c2cc1C(N)=O [LENVATINIB] |  |  | > 30 µM (inactive) | > 30 µM (inactive) | > 30 µM (inactive) | 1.57 µM | > 30 µM (inactive) | > 30 µM (inactive) | > 30 µM (inactive)
CCS(=O)(=O)N1CC(CC#N)(n2cc(-c3ncnc4[nH]ccc34)cn2)C1 [BARICITINIB] | > 30 µM (inactive) | > 30 µM (inactive) | > 30 µM (inactive) | 0.104 µM (active) |  | > 30 µM (inactive) |  | > 30 µM (inactive) | > 30 µM (inactive)
CCn1c(-c2nonc2N)nc2c(C#CC(C)(C)O)ncc(OC[C@H]3CCCNC3)c21 [GSK-690693] |  |  | > 30 µM (inactive) |  |  |  | > 30 µM (inactive) |  | 
CC(=O)Nc1cccc(-n2c(=O)n(C3CC3)c(=O)c3c(Nc4ccc(I)cc4F)n(C)c(=O)c(C)c32)c1 [TRAMETINIB] | > 30 µM (inactive) |  | > 30 µM (inactive) | > 30 µM (inactive) | > 30 µM (inactive) | > 30 µM (inactive) | > 30 µM (inactive) | > 30 µM (inactive) | > 30 µM (inactive)
CN1CCN(c2ccc3nc(-c4c(N)c5c(F)cccc5[nH]c4=O)[nH]c3c2)CC1 [DOVITINIB] |  |  |  |  |  |  | > 30 µM (inactive) |  | 
Nc1nc(N)c2nc(-c3cccc(O)c3)c(-c3cccc(O)c3)nc2n1 [TG100-115] |  |  |  |  |  |  | > 30 µM (inactive) |  | 
